Measurements as given in patent US20190070182A1, “USES OF PYRIMIDO-PYRIDAZINONES TO TREAT CANCER” (Asana Biosciences, LLC, priority 2015, published 2019).
Blank lines part the entries; values can stand above or below the compound they belong to.

Tests used:
[1] = test system: ibrutinib-resistant variant of Pfeiffer ("Ibrutinib-R"); experiment: cell proliferation, ibrutinib-resistant Pfeiffer; type: cell-based; conditions: Homo sapiens, pools of resistant cells
Protocol: (§1) This activity of ASN002 was assessed using a diffuse large B-cell lymphoma (DLBCL) cell line, Pfeiffer (“Parental”); and an ibrutinib-resistant variant of the same cell line (“Ibrutinib-R”), which was developed by growing the cells in the presence of increasing concentrations of ibrutinib. Pools of ibrutinib-resistant cells were tested in this study. The drug idelalisib (which was approved by the FDA in […] for the treatment of B-cell blood cancers) was used for comparison as a reference compound. The data are set forth in Table A (IC50 is the half maximal inhibitory concentration).

[2] = test system: Pfeiffer ("Parental") DLBCL cell line; experiment: cell proliferation, Pfeiffer parental; type: cell-based; conditions: Homo sapiens
Protocol: as §1

[3] = test system: DLBCL xenograft derived from SU-DHL-6 cell line; experiment: DLBCL xenograft mouse model (SU-DHL-6); type: in vivo; conditions: SU-DHL-6 cell line (FIG. 4)
[4] = test system: DLBCL xenograft derived from Pfeiffer cell line; experiment: DLBCL xenograft mouse model (Pfeiffer); type: in vivo; conditions: Pfeiffer cell line (FIG. 3)
[5] = test system: Pfeiffer (DLBCL cell line); experiment: caspase 3/7 apoptosis assay; type: cell-based; conditions: Homo sapiens, 24-hour treatment (FIG. 1), read-out: EC50, induced apoptosis (caspase 3/7 assay)
[6] = test system: multiple myeloma model derived from H929 cell line; experiment: mouse model of multiple myeloma (H929); type: in vivo; conditions: H929 cell line (FIG. 5)
[7] = test system: hematological malignant cell lines (leukemia, lymphoma, multiple myelomas); experiment: antiproliferative activity, hematological malignant cell line panel; type: cell-based; conditions: cell line panel representing leukemia, multiple myelomas (FIG. 2)
J82 = experiment: antiproliferative activity, solid tumor cell line; type: cell-based; conditions: Homo sapiens; J82, Bladder
Protocol: (§2) Example 2. The Anti-Cancer Activity of ASN002 was Also Evaluated in Many Solid Tumor Cell Lines.

SKMEL2 = experiment: antiproliferative activity, solid tumor cell line; type: cell-based; conditions: Homo sapiens, SK-MEL-2; SKMEL2, Melanoma
Protocol: as §2

SKHEP1 = experiment: antiproliferative activity, solid tumor cell line; type: cell-based; conditions: Homo sapiens, SK-HEP1; SKHEP1, Endothelial
Protocol: as §2

ZR75 = experiment: antiproliferative activity, solid tumor cell line; type: cell-based; conditions: ZR75, Breast
Protocol: as §2

HUG1N = experiment: antiproliferative activity, solid tumor cell line; type: cell-based; conditions: Gasrtic
Protocol: as §2

H1975 = experiment: antiproliferative activity, solid tumor cell line; type: cell-based; conditions: Homo sapiens, NCI-H1975; H1975, Lung
Protocol: as §2

HCC1937 = experiment: antiproliferative activity, solid tumor cell line; type: cell-based; conditions: Homo sapiens; HCC1937, Breast
Protocol: as §2

BxPC3 = experiment: antiproliferative activity, solid tumor cell line; type: cell-based; conditions: Homo sapiens, BXPC-3; BxPC3, Pancreas
Protocol: as §2

MDA-MB-231 = experiment: antiproliferative activity, solid tumor cell line; type: cell-based; conditions: Homo sapiens; MDA-MB-231, Breast
Protocol: as §2

MCF7 = experiment: antiproliferative activity, solid tumor cell line; type: cell-based; conditions: Homo sapiens; MCF7, Breast
Protocol: as §2

H1299 = experiment: antiproliferative activity, solid tumor cell line; type: cell-based; conditions: Homo sapiens, NCI-H1299; H1299, Lung
Protocol: as §2

H1581 = experiment: antiproliferative activity, solid tumor cell line; type: cell-based; conditions: Homo sapiens, NCI-H1581; H1581, Lung
Protocol: as §2

A549 = experiment: antiproliferative activity, solid tumor cell line; type: cell-based; conditions: Homo sapiens; A549, Lung
Protocol: as §2

HCC1954 = experiment: antiproliferative activity, solid tumor cell line; type: cell-based; conditions: Homo sapiens; HCC1954, Breast
Protocol: as §2

Y79 = experiment: antiproliferative activity, solid tumor cell line; type: cell-based; conditions: Homo sapiens; Y79, Retiblastoma
Protocol: as §2

Hec1A = experiment: antiproliferative activity, solid tumor cell line; type: cell-based; conditions: Homo sapiens, HEC-1-A, Endometrial
Protocol: as §2

PC3 = experiment: antiproliferative activity, solid tumor cell line; type: cell-based; conditions: Homo sapiens, PC-3; PC3, Prostate
Protocol: as §2

T24 = experiment: antiproliferative activity, solid tumor cell line; type: cell-based; conditions: Homo sapiens, T-24; T24, Bladder
Protocol: as §2

TCCSUP = experiment: antiproliferative activity, solid tumor cell line; type: cell-based; conditions: Homo sapiens, TCC-SUP, Bladder
Protocol: as §2

5637 = experiment: antiproliferative activity, solid tumor cell line; type: cell-based; conditions: 5637, Bladder
Protocol: as §2

HepG2 = experiment: antiproliferative activity, solid tumor cell line; type: cell-based; conditions: Homo sapiens; HepG2, Liver
Protocol: as §2

SCaBER = experiment: antiproliferative activity, solid tumor cell line; type: cell-based; conditions: Homo sapiens, Bladder
Protocol: as §2

U87MG = experiment: antiproliferative activity, solid tumor cell line; type: cell-based; conditions: Homo sapiens, U-87 MG, Glioblastoma
Protocol: as §2

SKOV3 = experiment: antiproliferative activity, solid tumor cell line; type: cell-based; conditions: Homo sapiens, SK-OV-3; SKOV3, Ovarian
Protocol: as §2

BT20 = experiment: antiproliferative activity, solid tumor cell line; type: cell-based; conditions: Homo sapiens, BT-20; BT20, Breast
Protocol: as §2

SKMEL28 = experiment: antiproliferative activity, solid tumor cell line; type: cell-based; conditions: Homo sapiens, SK-MEL-28; SKMEL28, Melanoma
Protocol: as §2

HT1376 = experiment: antiproliferative activity, solid tumor cell line; type: cell-based; conditions: Homo sapiens, HT-1376; HT1376, Bladder
Protocol: as §2

JEG3 = experiment: antiproliferative activity, solid tumor cell line; type: cell-based; conditions: Homo sapiens, JEG-3; JEG3, Placenta
Protocol: as §2

CFPac1 = experiment: antiproliferative activity, solid tumor cell line; type: cell-based; conditions: Homo sapiens, CFPAC-1; CFPac1, Pancreas
Protocol: as §2

MIAPACA2 = experiment: antiproliferative activity, solid tumor cell line; type: cell-based; conditions: Homo sapiens, MIA PaCa-2; MIAPACA2, Pancreas
Protocol: as §2

MKN1 = experiment: antiproliferative activity, solid tumor cell line; type: cell-based; conditions: Homo sapiens, MKN-1; MKN1, Gastric
Protocol: as §2

HT29 = experiment: antiproliferative activity, solid tumor cell line; type: cell-based; conditions: Homo sapiens, HT-29; HT29, Colon
Protocol: as §2

HCC1806 = experiment: antiproliferative activity, solid tumor cell line; type: cell-based; conditions: Homo sapiens; HCC1806, Breast
Protocol: as §2

SW780 = experiment: antiproliferative activity, solid tumor cell line; type: cell-based; conditions: Homo sapiens; SW780, Bladder
Protocol: as §2

HCT116 = experiment: antiproliferative activity, solid tumor cell line; type: cell-based; conditions: Homo sapiens, HCT-116; HCT116, Colon
Protocol: as §2

Caki1 = experiment: antiproliferative activity, solid tumor cell line; type: cell-based; conditions: Homo sapiens, CAKI-1; Caki1, Kidney
Protocol: as §2

DU145 = experiment: antiproliferative activity, solid tumor cell line; type: cell-based; conditions: Homo sapiens, DU-145; DU145, Prostate
Protocol: as §2

BT474 = experiment: antiproliferative activity, solid tumor cell line; type: cell-based; conditions: Homo sapiens, BT-474; BT474, Breast
Protocol: as §2

MFE296 = experiment: antiproliferative activity, solid tumor cell line; type: cell-based; conditions: Homo sapiens, MFE-296; MFE296, Endometrial
Protocol: as §2

MDAMB468 = experiment: antiproliferative activity, solid tumor cell line; type: cell-based; conditions: Homo sapiens, MDA-MB-468; MDAMB468, Breast
Protocol: as §2

MDAMB453 = experiment: antiproliferative activity, solid tumor cell line; type: cell-based; conditions: Homo sapiens, MDA-MB-453; MDAMB453, Breast
Protocol: as §2

Colo205 = experiment: antiproliferative activity, solid tumor cell line; type: cell-based; conditions: Homo sapiens, COLO 205; Colo205, Colon
Protocol: as §2

LNCaP = experiment: antiproliferative activity, solid tumor cell line; type: cell-based; conditions: Homo sapiens, Prostate
Protocol: as §2

A375 = experiment: antiproliferative activity, solid tumor cell line; type: cell-based; conditions: Homo sapiens, A-375; A375, Melanoma
Protocol: as §2

MDAMB361 = experiment: antiproliferative activity, solid tumor cell line; type: cell-based; conditions: Homo sapiens, MDA-MB-361; MDAMB361, Breast
Protocol: as §2

SW480 = experiment: antiproliferative activity, solid tumor cell line; type: cell-based; conditions: Homo sapiens; SW480, Colon
Protocol: as §2

HT1197 = experiment: antiproliferative activity, solid tumor cell line; type: cell-based; conditions: Homo sapiens; HT1197, Bladder
Protocol: as §2

LoVo = experiment: antiproliferative activity, solid tumor cell line; type: cell-based; conditions: Homo sapiens, Colon
Protocol: as §2

UMUC3 = experiment: antiproliferative activity, solid tumor cell line; type: cell-based; conditions: Homo sapiens; UMUC3, Bladder
Protocol: as §2

CAOV3 = experiment: antiproliferative activity, solid tumor cell line; type: cell-based; conditions: Homo sapiens, Caov-3; CAOV3, Ovary
Protocol: as §2

MFM-223 = experiment: antiproliferative activity, solid tumor cell line; type: cell-based; conditions: Homo sapiens; MFM-223, Breast
Protocol: as §2

EAhy296 = experiment: antiproliferative activity, solid tumor cell line; type: cell-based; conditions: EAhy296, Endothelial
Protocol: as §2

HeLa = experiment: antiproliferative activity, solid tumor cell line; type: cell-based; conditions: Homo sapiens, Cervical
Protocol: as §2

C33A = experiment: antiproliferative activity, solid tumor cell line; type: cell-based; conditions: Homo sapiens, C-33-A, Cervical
Protocol: as §2

SW1990 = experiment: antiproliferative activity, solid tumor cell line; type: cell-based; conditions: Homo sapiens; SW1990, Pancreas
Protocol: as §2

AsPC1 = experiment: antiproliferative activity, solid tumor cell line; type: cell-based; conditions: Homo sapiens; AsPC1, Pancreas
Protocol: as §2

H460 = experiment: antiproliferative activity, solid tumor cell line; type: cell-based; conditions: Homo sapiens, NCI-H460; H460, Lung
Protocol: as §2

KE39 = experiment: antiproliferative activity, solid tumor cell line; type: cell-based; conditions: KE39, Gastric
Protocol: as §2

[8] = test system: human erythroleukemia model derived from HEL cell line; experiment: mouse model of human erythroleukemia (HEL); type: in vivo; conditions: HEL cell line (FIG. 6)

Structure (SMILES): C=CC(=O)N1CCC[C@@H](n2nc(-c3ccc(Oc4ccccc4)cc3)c3c(N)ncnc32)C1 [Ibrutinib, ibrutinib]
IC50 [1]: 4500 nM | IC50 [2]: 270 nM

Structure (SMILES): CC[C@H](Nc1ncnc2[nH]cnc12)c1nc2cccc(F)c2c(=O)n1-c1ccccc1 [Idelalisib, idelalisib]
IC50 [1]: > 10000 nM | IC50 [2]: 130 nM

EC50 [5]: 120 nM | IC50 (J82): 2750 nM | IC50 (SKMEL2): 1030 nM | IC50 (SKHEP1): > 10000 nM | IC50 (ZR75): 420 nM | IC50 (HUG1N): 810 nM | IC50 (H1975): 850 nM | IC50 (HCC1937): > 10000 nM | IC50 (BxPC3): 660 nM | IC50 (MDA-MB-231): 770 nM | IC50 (MCF7): 600 nM | IC50 (H1299): > 10000 nM | IC50 (H1581): 380 nM | IC50 (A549): 460 nM | IC50 (HCC1954): > 10000 nM | IC50 (Y79): > 10000 nM | IC50 (Hec1A): 660 nM | IC50 (PC3): 1980 nM | IC50 (T24): 440 nM | IC50 (TCCSUP): 340 nM | IC50 5637: 420 nM | IC50 (HepG2): 240 nM | IC50 (SCaBER): 450 nM | IC50 (U87MG): > 10000 nM | IC50 (SKOV3): 730 nM | IC50 (BT20): 2130 nM | IC50 (SKMEL28): > 10000 nM | IC50 (HT1376): 90 nM | IC50 (JEG3): > 10000 nM | IC50 (CFPac1): 850 nM | IC50 (MIAPACA2): 2770 nM | IC50 (MKN1): 880 nM | IC50 (HT29): 300 nM | IC50 (HCC1806): 1630 nM | IC50 (SW780): > 10000 nM | IC50 (HCT116): 430 nM | IC50 (Caki1): 330 nM | IC50 (DU145): 990 nM | IC50 (BT474): > 10000 nM | IC50 (MFE296): 880 nM | IC50 (MDAMB468): 1460 nM | IC50 (MDAMB453): 1740 nM | IC50 (Colo205): 610 nM | IC50 (LNCaP): 1070 nM | IC50 (A375): 610 nM | IC50 (MDAMB361): 490 nM | IC50 (SW480): 600 nM | IC50 (HT1197): 540 nM | IC50 (LoVo): 150 nM | IC50 (UMUC3): 2280 nM | IC50 (CAOV3): 420 nM | IC50 (MFM-223): 400 nM | IC50 (EAhy296): 1800 nM | IC50 (HeLa): 770 nM | IC50 (C33A): 500 nM | IC50 (SW1990): 1620 nM | IC50 (AsPC1): 840 nM | IC50 (H460): 910 nM | IC50 (KE39): 860 nM
Structure (SMILES): N#CCC1CCN(c2nc(Nc3ccc(N4CCC(O)CC4)cc3)c3c(=O)[nH]ncc3n2)CC1 [ASN002, 2-(1-(4-((4-(4-hydroxypiperidin-1-yl)phenyl)amino)-5-oxo-5,6-dihydropyrimido[4,5-d]pyridazin-2-yl)piperidin-4-yl)acetonitrile]
tumor growth [3]: inhibited tumor growth | tumor growth [4]: inhibited tumor growth | tumor growth [6]: inhibited tumor growth | antiproliferative activity [7]: strong antiproliferative activity | IC50 [1]: 320 nM | IC50 [2]: 80 nM | hind limb paralysis [8]: delayed the hind limb paralysis
